Reference: the AptaBench aptamer set (doi:10.1093/nar/gkaf219)

What was measured:
Conditions in all cases: 10 mM Tris-HCl, pH 7.4
[1] = test system: DNA aptamer or structured DNA CTTACGACAAACTTTTGGGTATCTGGTTGGGAGGTTCTGTCGTAAG
[2] = test system: DNA aptamer or structured DNA CTTACGACAAGGGATGTGAGTTAGTGTGTCGGATCTATGTCGTAAG
[3] = test system: DNA aptamer or structured DNA CTTACGACACAGGGCGTGGAGGAGCTGGGCTATTAGGGGTCGTAAG
[4] = test system: DNA aptamer or structured DNA CTTACGACACAGGGCGTGGAGTGGCTGGGCTTCAAGGGGTCGTAAG
[5] = test system: DNA aptamer or structured DNA CTTACGACGCGGACGTTGTGGGGCGTGGCAGTCGGTGGGTCGTAAG
[6] = test system: DNA aptamer or structured DNA CTTACGACGGGGGTGTGGCTAGGGGTGGCGCGGGATCCGTCGTAAG
[7] = test system: DNA aptamer or structured DNA CTTACGACGGGTAGGCTGAGGGTCTGGAGTGGTTGGAAGTCGTAAG
[8] = test system: DNA aptamer or structured DNA CTTACGACGGGTGCCGTTGGTTCTAGGGTTAGGATGGCGTCGTAAG
[9] = test system: DNA aptamer or structured DNA CTTACGACGGGTGCTGTTGGTTCTAGGGGTAGGATGGCGTCGTAAG
[10] = test system: DNA aptamer or structured DNA CTTACGACGGTGGTGTGGTACTGGGCTTGGGGGGTGTTGTCGTAAG
[11] = test system: DNA aptamer or structured DNA CTTACGACGTGGGAAGTGTGGTTTGTGATCGGATCCGTGTCGTAAG
[12] = test system: DNA aptamer or structured DNA CTTACGACGTGTGCTGTTGGTTCTAGGGTAGGATGGCGTCGTAAG
[13] = test system: DNA aptamer or structured DNA CTTACGACTAGGCGGGGGTCGGCCACCGAGGTGGGGTAGTCGTAAG
[14] = test system: DNA aptamer or structured DNA CTTACGACTAGGTGTGGGTCGGCTTTTTTTTAAGGGTAGTCGTAAG
[15] = test system: DNA aptamer or structured DNA CTTACGACTAGTTCCGGGTAGGGGTAGGTGTGGTTGTGGTCGTAAG
[16] = test system: DNA aptamer or structured DNA CTTACGACTAGTTCGGATAAGGGGTAGGTGTGGTTGTGGTCGTAAG
[17] = test system: DNA aptamer or structured DNA CTTACGACTGGGATGTGTTGTTAGTGCTGTCGGATCCGGTCGTAAG
[18] = test system: DNA aptamer or structured DNA CTTACGACTTGTTCTGAGGGTCAACGGTGGTGTAGTTAGTCGTAAG
[19] = test system: DNA aptamer or structured DNA GGGACGACAGAGGTTAGGTGTAGGTTTTTGGGTCCTGTCGTCCC
[20] = test system: DNA aptamer or structured DNA GGGACGACGAGGGGATCCATCCAATGGGGTTTGTATACGTCGTCCC
[21] = test system: DNA aptamer or structured DNA GGGACGACGGAGGTGTAGGGTTTAGGTAGTGGGTTGAAGTCGTCCC
[22] = test system: DNA aptamer or structured DNA GGGACGACGGGATGGTAAGTGGCAGGTCGTTGGAATTTCTACTGTATCGTCGTCCC
[23] = test system: DNA aptamer or structured DNA TTCAAATCTATGGTGCAGTGCGCAGGGACGGAGGTAAAACATGAGTTTTAGTCTAGATTTGAA
[24] = test system: DNA aptamer or structured DNA TTCAAATCTCGCGCAGGTAGGGGTGTAGGTGTGGGGGTAAGTCTAGATTTGAA
[25] = test system: DNA aptamer or structured DNA TTCAAATCTGAGCAGCCTAGTTACTGACGGGTTTATAGTACTCGCATTGAGTCTAGATTTGAA
[26] = test system: DNA aptamer or structured DNA TTCAAATCTGAGCAGCCTAGTTACTGACGGGTTTATAGTACTCGTATTGAGTCTAGATTTGAA
[27] = test system: DNA aptamer or structured DNA TTCAAATCTGGCGCAGGTAGGGGTGTAGGTGTGGGGGTAAGTCTAGATTTGAA
[28] = test system: DNA aptamer or structured DNA TTCAAATCTGGCGTTCGGGTTTGTCTTATTGATGGATCAAGTCTAGATTTGAA
[29] = test system: DNA aptamer or structured DNA TTCAAATCTGGTGCCCTTTCGCAGTCGGTTGGTAATGAGATCACTTTAGAGTCTAGATTTGAA
[30] = test system: DNA aptamer or structured DNA GGGACGACAGCTTGGCTTGGTCGGGGTAGGGTTCGGATGTCGTCCC
[31] = test system: DNA aptamer or structured DNA GGGACGACTGCTTGGGTAGGTCGGGCTTGGGTTCGGCGGTCGTCCC
[32] = test system: DNA aptamer or structured DNA CTTACGACACAGGGTGTGTTGTGCTCAGTGGTGTATGTGTCGTAAG
[33] = test system: DNA aptamer or structured DNA CTTACGACCACCATGGGAATCGGGTGGCTTGGAGGTGCGTCGTAAG
[34] = test system: DNA aptamer or structured DNA CTTACGACCAGGCTACGTGGGGGAGGGTGGGAAGACGGGTCGTAAG
[35] = test system: DNA aptamer or structured DNA CTTACGACCGGTGTGCTCGGGGAAGGGGGCCCTAGGTGGTCGTAAG
Throughout, for binding call: call rule not given here.

Compound: NCCc1c[nH]c2ccc(O)cc12
- binding call [1]: no binding
- binding call [2]: no binding
- binding call [3]: no binding
- binding call [4]: no binding
- binding call [5]: no binding
- binding call [6]: binds
- binding call [7]: no binding
- binding call [8]: binds
- binding call [9]: binds
- binding call [10]: no binding
- binding call [11]: no binding
- binding call [12]: binds
- binding call [13]: no binding
- binding call [14]: no binding
- binding call [15]: binds
- binding call [16]: binds
- binding call [17]: no binding
- binding call [18]: no binding
- binding call [19]: no binding
- binding call [20]: binds
- binding call [21]: no binding
- binding call [22]: binds
- binding call [23]: binds
- binding call [24]: no binding
- binding call [25]: no binding
- binding call [26]: no binding
- binding call [27]: no binding
- binding call [28]: no binding
- binding call [29]: no binding

Compound: CCC(=O)C(CC(C)N(C)C)(c1ccccc1)c1ccccc1 (stereo unspecified)
- binding call [3]: no binding
- binding call [4]: no binding
- binding call [6]: binds
- binding call [7]: no binding
- binding call [10]: no binding
- binding call [15]: no binding
- binding call [19]: no binding
- binding call [30]: binds
- binding call [20]: binds
- binding call [21]: binds
- binding call [22]: no binding
- binding call [31]: binds
- binding call [23]: no binding
- binding call [25]: no binding
- binding call [26]: no binding
- binding call [27]: no binding
- binding call [29]: binds

Compound: NCCc1ccc(O)c(O)c1
- binding call [1]: no binding
- binding call [2]: binds
- binding call [3]: no binding
- binding call [4]: no binding
- binding call [5]: no binding
- binding call [6]: binds
- binding call [7]: no binding
- binding call [8]: binds
- binding call [9]: binds
- binding call [10]: no binding
- binding call [11]: binds
- binding call [12]: binds
- binding call [13]: no binding
- binding call [14]: no binding
- binding call [15]: no binding
- binding call [16]: no binding
- binding call [17]: no binding
- binding call [18]: no binding
- binding call [20]: binds
- binding call [22]: binds
- binding call [23]: binds
- binding call [25]: binds
- binding call [26]: binds
- binding call [29]: no binding

Compound: COC(=O)[C@@H]1C2CCC(C[C@@H]1OC(=O)c1ccccc1)N2C (stereo partly specified)
- Kd [2]: 152 nM
- Kd [3]: 1190 nM
- Kd [4]: 123 nM
- binding call [32]: no binding
- binding call [33]: no binding
- binding call [34]: no binding
- binding call [35]: no binding
- Kd [5]: 372 nM
- Kd [6]: 185 nM
- Kd [7]: 450 nM
- Kd [8]: 313 nM
- Kd [9]: 107 nM
- Kd [10]: 335 nM
- Kd [11]: 168 nM
- Kd [12]: 93 nM
- Kd [13]: 315 nM
- Kd [14]: 352 nM
- Kd [15]: 61 nM
- Kd [16]: 192 nM
- Kd [17]: 204 nM
- Kd [18]: 22 nM
- binding call [19]: no binding
- binding call [20]: binds
- binding call [21]: binds
- binding call [22]: no binding
- binding call [31]: no binding
- binding call [24]: no binding
- binding call [25]: no binding
- binding call [26]: no binding
- binding call [27]: no binding
- binding call [28]: no binding
